In US20260250290A1 (BRISTOL-MYERS SQUIBB COMPANY, priority 2023, published 2026):
Where a name gives a salt, the structure may show the parent alone.

Target: T1, full length SGK1 (Homo sapiens, UniProt O00141)
T1 construct: 125 μM full length SGK1 (Life Technologies Part #PR7358A); purchased Life Technologies PR7358A
T1 sequence (O00141 1-431): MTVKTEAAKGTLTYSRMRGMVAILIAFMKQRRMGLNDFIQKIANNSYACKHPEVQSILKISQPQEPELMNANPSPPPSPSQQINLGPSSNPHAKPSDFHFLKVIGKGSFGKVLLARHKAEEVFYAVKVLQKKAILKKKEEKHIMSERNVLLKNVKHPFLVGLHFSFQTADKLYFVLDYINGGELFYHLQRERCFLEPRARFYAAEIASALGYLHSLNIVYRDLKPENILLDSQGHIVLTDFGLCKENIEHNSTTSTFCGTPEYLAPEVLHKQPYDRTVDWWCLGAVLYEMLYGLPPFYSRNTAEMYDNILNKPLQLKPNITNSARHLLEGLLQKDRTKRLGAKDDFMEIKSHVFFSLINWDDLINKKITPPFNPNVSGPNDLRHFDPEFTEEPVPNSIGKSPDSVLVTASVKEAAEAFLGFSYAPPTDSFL
Assay: SGK1 inhibition Assay A (Caliper LabChip electrophoretic separation of fluorescent peptide substrate and phosphorylated product)
Format: biochemical
Conditions: Assay A; 20 μM ATP, 40 min incubation; read-out: SGK1 IC50

| Compound | IC50 [nM] |
| --- | --- |
| CC(C)Cn1cc(-c2cc(N3CCC[C@@H](NC(=O)c4ccc(C(F)F)s4)C3)c3c(N)ncnn23)ccc1=O [Example 510, (R)-N-(1-(4-amino-7-(1-isobutyl-6-oxo-1,6-dihydropyridin-3-yl)pyrrolo[2,1-f][1,2,4]triazin-5-yl)piperidin-3-yl)-5-(difluoromethyl)thiophene-2-carboxamide] | 44 |
| Nc1ncnn2c(-c3cncnc3)cc(N3CCC[C@@H](NC(=O)c4sc5ccccc5c4OC4CCNCC4)C3)c12 [Example 657, (R)—N-(1-(4-amino-7-(pyrimidin-5-yl)pyrrolo[2,1-f][1,2,4]triazin-5-yl)piperidin-3-yl)-3-(piperidin-4-yloxy)benzo[b]thiophene-2-carboxamide] | 51 |
| CC(=O)N1CC=C(c2cc(N3CCC[C@@H](NC(=O)c4cc(N5CCOCC5)c(C)s4)C3)c3c(N)ncnn23)C1 [Example 271, (R)—N-(1-(7-(1-acetyl-2,5-dihydro-1H-pyrrol-3-yl)-4-aminopyrrolo[2,1-f][1,2,4]triazin-5-yl)piperidin-3-yl)-5-methyl-4-morpholinothiophene-2-carboxamide] | 22 |
| CS(=O)(=O)c1ccc(-c2cc(N3CCC[C@@H](NC(=O)c4ccc(F)c(F)c4)C3)c3c(N)ncnn23)cc1 [Example 26, (R)-N-(1-(4-amino-7-(4-(methylsulfonyl)phenyl)pyrrolo [2,1-f][1,2,4]triazin-5-yl)piperidin-3-yl)-3,4-difluorobenzamide] | 19 |
| CC(=O)N1CC=C(c2cc(N3CCC[C@@H](NC(=O)c4sc(C(F)F)cc4C4CCN(C)C4)C3)c3c(N)ncnn23)C1 (stereo partly drawn) [Example 406, N-((R)-1-(7-(1-acetyl-2,5-dihydro-1H-pyrrol-3-yl)-4-aminopyrrolo[2,1-f][1,2,4]triazin-5-yl)piperidin-3-yl)-5-(difluoromethyl)-3-(1-methylpyrrolidin-3-yl)thiophene-2-carboxamide] | 309 |
| CS(=O)(=O)c1ccc(-c2cc(N3CCC[C@@H](NC(=O)c4ccn[nH]4)C3)c3c(N)ncnn23)cc1 [Example 38, (R)-N-(1-(4-amino-7-(4-(methylsulfonyl)phenyl)pyrrolo[2,1-f][1,2,4]triazin-5-yl)piperidin-3-yl)-1H-pyrazole-5-carboxamide] | 22 |
| CC(=O)N1CC=C(c2cc(N3CCC[C@@H](NC(=O)c4sc(Cl)cc4OC4CCCN(C)C4)C3)c3c(N)ncnn23)C1 (single isomer, unassigned) [Example 595] | 37 |
| NC(=O)Cn1cc(-c2cc(N3CCC[C@@H](NC(=O)c4ccc(Cl)s4)C3)c3c(N)ncnn23)nn1 [Example 865, (R)—N-(1-(4-amino-7-(1-(2-amino-2-oxoethyl)-1H-1,2,3-triazol-4-yl)pyrrolo[2,1-f][1,2,4]triazin-5-yl)piperidin-3-yl)-5-chlorothiophene-2-carboxamide] | 731 |
| CN(C)CCOc1cc(C(F)F)sc1C(=O)N[C@@H]1CCCN(c2cc(-c3cncnc3)n3ncnc(N)c23)C1 [Example 307, (R)-N-(1-(4-amino-7-(pyrimidin-5-yl)pyrrolo[2,1-f] [1,2,4]triazin-5-yl)piperidin-3-yl)-5-(difluoromethyl)-3-(2-(dimethylamino)ethoxy)thiophene-2-carboxamide] | 27 |
| Methyl (R)-3-(4-amino-5-(3- (5-(difluoromethyl)-3- morpholinothiophene-2- carboxamido)piperidin-1- yl)pyrrolo[2,1-f][1,2,4]triazin- 7-yl)-2,5-dihydro-1H-pyrrole- 1-carboxylate [Example 320] | 25 |
| (R)-3-(4-amino-5-(3-(pyrazine-2-carboxamido)piperidin-1-yl)pyrrolo[2,1-f][1,2,4]triazin-7-yl)-2,5-dihydro-1H-pyrrole-1-carboxylate [Example 540] | 216 |
| CC(=O)N1CC=C(c2cc(N3CCC[C@@H](NC(=O)c4sc(Cl)cc4OC4CN(CC(F)F)C4)C3)c3c(N)ncnn23)C1 [Example 384, (R)-N-(1-(7-(1-acetyl-2,5-dihydro-1H-pyrrol-3-yl)-4-aminopyrrolo[2,1-f][1,2,4]triazin-5-yl)piperidin-3-yl)-5-chloro-3-((1-(2,2-difluoroethyl)azetidin-3-yl)oxy)thiophene-2-carboxamide] | 57 |
| Nc1ncnn2c(-c3cncnc3)cc(N3CCC[C@@H](NC(=O)c4cc5cc(F)ccc5[nH]4)C3)c12 [Example 516, (R)-N-(1-(4-amino-7-(pyrimidin-5-yl)pyrrolo[2,1-f][1,2,4]triazin-5-yl)piperidin-3-yl)-5-fluoro-1H-indole-2-carboxamide] | 164 |

These reach a lower IC50. Values come first.

| IC50 [nM] | Compound |
| --- | --- |
| 0.4 | Nc1ncnn2c(-c3ccc(C=O)cc3)cc(N3CCC[C@@H](NC(=O)c4ccc(Cl)s4)C3)c12 [Example 539] |
| 10 | COC(=O)N1CC=C(c2cc(N3CCC[C@@H](NC(=O)c4sc5ccccc5c4OC4CCNCC4)C3)c3c(N)ncnn23)C1 [Example 652, methyl (R)-3-(4-amino-5-(3-(3-(piperidin-4-yloxy)benzo[b]thiophene-2-carboxamido)piperidin-1-yl)pyrrolo[2,1-f][1,2,4]triazin-7-yl)-2,5-dihydro-1H-pyrrole-1-carboxylate] |
| 7 | Nc1ncnn2c(-c3ccnc(C(F)F)c3)cc(N3CCC[C@@H](NC(=O)c4sc(Cl)cc4OCCN4CCC(F)(F)C4)C3)c12 [Example 294, (R)-N-(1-(4-amino-7-(2-(difluoromethyl)pyridin-4-yl)pyrrolo[2,1-f][1,2,4]triazin-5-yl)piperidin-3-yl)-5-chloro-3-(2-(3,3-difluoropyrrolidin-1-yl)ethoxy)thiophene-2-carboxamide] |
| 6 | N#Cc1ccc(-c2cc(N3CCC[C@@H](NC(=O)c4cc5ccccc5o4)C3)c3c(N)ncnn23)cn1 [Example 649] |
| 12 | Cc1cc(CO)c(C(=O)N[C@@H]2CCCN(c3cc(-c4ccnc(F)c4)n4ncnc(N)c34)C2)s1 [Example 202, (R)—N-(1-(4-amino-7-(2-fluoropyridin-4-yl)pyrrolo[2,1-f][1,2,4]triazin-5-yl)piperidin-3-yl)-3-(hydroxymethyl)-5-methylthiophene-2-carboxamide] |
| 4 | CC(=O)N1CC=C(c2cc(N3CCCC(NC(=O)c4sc(Cl)cc4OCC4CCNC4)C3)c3c(N)ncnn23)C1 (single isomer, unassigned) [Example 639] |
| 6 | COc1cc(-c2cc(N3CCC[C@@H](NC(=O)c4ccc(Cl)s4)C3)c3c(N)ncnn23)ccn1 [Example 215, (R)-N-(1-(4-amino-7-(2-methoxypyridin-4-yl)pyrrolo[2,1-f][1,2,4]triazin-5-yl)piperidin-3-yl)-5-chlorothiophene-2-carboxamide, TFA] |
| 5 | Nc1ncnn2c(-c3ccnc(F)c3)cc(N3CCC[C@@H](NC(=O)c4sc(Cl)cc4OCCN4CCOCC4)C3)c12 [Example 148, (R)-N-(1-(4-amino-7-(2-fluoropyridin-4-yl)pyrrolo[2,1-f][1,2,4]triazin-5-yl)piperidin-3-yl)-5-chloro-3-(2-morpholinoethoxy) thiophene-2-carboxamide, TFA] |
| 2 | Nc1ncnn2c(-c3ccc(=O)n(C(F)F)c3)cc(N3CCC[C@@H](NC(=O)c4ccc(Cl)s4)C3)c12 [Example 537, (R)-N-(1-(4-amino-7-(1-(difluoromethyl)-6-oxo-1,6-dihydropyridin-3-yl)pyrrolo[2,1-f][1,2,4]triazin-5-yl)piperidin-3-yl)-5-chlorothiophene-2-carboxamide] |
| 7 | CC(=O)N1CC=C(c2cc(N3CCC[C@@H](NC(=O)c4sc(-c5ccnc(C(F)F)c5)cc4OCCN(C)C)C3)c3c(N)ncnn23)C1 [Example 555, (R)-N-(1-(7-(1-acetyl-2,5-dihydro-1H-pyrrol-3-yl)-4-aminopyrrolo[2,1-f][1,2,4]triazin-5-yl)piperidin-3-yl)-5-(2-(difluoromethyl)pyridin-4-yl)-3-(2-(dimethylamino)ethoxy)thiophene-2-carboxamide] |
| 6 | COC(=O)N1CC=C(c2cc(N3CCC[C@@H](NC(=O)c4sc(C(F)F)cc4OC4CCNCC4)C3)c3c(N)ncnn23)C1 [Example 348, methyl (R)-3-(4-amino-5-(3-(5-(difluoromethyl)-3-(piperidin-4-yloxy)thiophene-2-carboxamido)piperidin-1-yl)pyrrolo[2,1-f][1,2,4]triazin-7-yl)-2,5-dihydro-1H-pyrrole-1-carboxylate] |
| 9 | CC(=O)N1CC=C(c2cc(N3CCC[C@@H](NC(=O)c4sc(Cl)cc4OC4CCN(CC(C)(C)O)CC4)C3)c3c(N)ncnn23)C1 [Example 618, (R)—N-(1-(7-(1-acetyl-2,5-dihydro-1H-pyrrol-3-yl)-4-aminopyrrolo[2,1-f][1,2,4]triazin-5-yl)piperidin-3-yl)-5-chloro-3-((1-(2-hydroxy-2-methylpropyl)piperidin-4-yl)oxy)thiophene-2-carboxamide] |
| 4 | CC(=O)N1CC=C(c2cc(N3CCC[C@@H](NC(=O)c4sc(Cl)cc4OCCN(C)C)C3)c3c(N)ncnn23)C1 [Example 175, (R)—N-(1-(7-(1-acetyl-2,5-dihydro-1H-pyrrol-3-yl)-4-aminopyrrolo[2,1-f][1,2,4]triazin-5-yl)piperidin-3-yl)-5-chloro-3-(2-(dimethylamino)ethoxy)thiophene-2-carboxamide, 2 TFA] |
| 4 | CN(C)CCOc1cc(C(F)F)sc1C(=O)N[C@@H]1CCCN(c2cc(-c3ccc(C(N)=O)c(F)c3)n3ncnc(N)c23)C1 [Example 302, (R)—N-(1-(4-amino-7-(4-carbamoyl-3-fluorophenyl)pyrrolo[2,1-f][1,2,4]triazin-5-yl)piperidin-3-yl)-5-(difluoromethyl)-3-(2-(dimethylamino)ethoxy)thiophene-2-carboxamide] |
